Source: US20260306459A1, “INHIBITORS OF NSUN1- AND NSUN2-MEDIATED ACTIVE STRUCTURES” (THE UNIVERSITY OF CHICAGO, priority 2023, published 2026)
Entries after “also recorded” stand apart in the source; their conditions may differ. Values belong to the compound of their own block, whether it stands above or below them.

Legend:
[1] = system: C1498 cells; assay: MTT growth inhibition in myeloid leukemia cell line C1498; type: cell-based, mouse; details: C1498, mouse myeloid leukemia, wrapped cell
Text: (§1) FIGS. 8A-8B display a schematic of an 5-ethynyl uridine click chemistry (EC)-coupled flow cytometry (EC-FCM) assay (FIG. 8A), while FIG. 8B depicts the results of an EC-FCM assay showing distinct drug-specific signatures/patterns of nascent RNA synthesis inhibition in the venetoclax sensitive leukemia cell line (K1). The MTT assay measures cell viability and proliferation as well as cytotoxicity of compounds by assessing cellular metabolic activity. The associated measurement can be described as cell viability, cell killing, and/or growth inhibition.
(§2) FIGS. 12A-12J display bar graphs displaying the results of validation experiments for small molecule inhibitors of NSUN1/2-ACS interactions as identified herein. Drug validation of select SC, H82, and/or K562 inhibiting compounds in mouse acute myeloid leukemia cell Line (C1498), SC cells, H82 cells, and/or K562 cells. NSUN1-17 and/or venetoclax acted as controls. Inhibition of cell vitality was identified as dose-dependent for certain small molecules, not merely cytotoxic. In brief, stock with concentration 0.4×10^6 test (e.g., SC, H82, K562, or C1498, as labelled) cells/mL, and 10 μM/μL drug was serially diluted into drug-free cell stock to reach concentrations of 1 μM/μL and […] and split into 100 μL volumes in a 96-well plate. MTT assays performed after 24 hour incubation. Percentages calculated as a difference in mean absorbance of each drug triplicate and mean absorbance in drug-free cell triplicate. Red bars represent standard errors. The concentration of drug represented by each column is from left to right as written in the figure keys. FIGS. 12A-12E provide results from independent repeats for different groupings of small molecules tested against C1498 cells. FIGS. 12F-12G provide results from independent repeats for different groupings of small molecules tested against H82 cells. FIGS. […] provide results from independent repeats for different groupings of small molecules tested against SC cells. FIG. 12J provide results from an assay against K562 cells.
(§3) The inventors then designed a protocol for functional screening of NSUN1/2-targeting supercomputing/AI-derived compound libraries as schematically presented in FIGS. 5A-5G. Briefly, the library compounds were obtained from various chemical companies/vendors and dissolved in DMSO, and then applied to 96-well plates that contained leukemia and/or other cancer cells that were resistant to venetoclax. Both the routine colorimetric assay (MTT assay) and the newly developed NSUN1/2-targeting fluorescence quenching and release (FQR) assay were performed to select bioactive compounds for further quantitative study to confirm that they targetNSUN1/2 and their associated ACS. As described below, the compound libraries screened through cancer cell proliferation and/or NSUN1/2 localization to the ACS successfully identified numerous promising compounds that can inhibit the leukemia cell growth and appear to target the NSUN1-mediated ACS (see Table 2). This success has proven the feasibility and efficacy of the described supercomputing/AI design and functional screening of the NSUN1/2-targeting drug libraries. In some aspects, screening is conducted using drug-resistant cell lines. In some aspects, screening is conducted using drug-sensitive cell lines. In some aspects, screening is conducted in leukemia cell lines. In some aspects, screening is conducted in other cancer cell lines besides leukemia (e.g., lung cancer cell lines). In some aspects, NSUN1/2-ACS inhibitors identified are verified in additional cell lines and/or animal models (see e.g., Tables 4-6).

[2] = system: leukemia and lung cancer cell lines; assay: Functional (MTT) screening of NSUN1/2-targeting libraries in leukemia and lung cancer cell lines; type: cell-based, human; details: for Bioactive positive hit, tumor cell growth inhibition and lineage preference: leukemia and lung cancer cell lines; for Efficacy of tumor cell growth inhibition: multiple leukemia lines and/or lung cancer cell lines
Experimental: (§4) FIGS. 11A-11D display scatter plot representations of screening results for AI-designed NSUN1-targeting compound libraries in a venetcoclax-resistant human myeloid leukemia cell line (SC), lung cancer cell line (H82), and venetoclax resistant human […], and a schematic representation of categorization of the results. A human myeloid leukemia cell Line (SC), a lung cancer cell line (H82 or K562) were both incubated at drug concentration 10 μM/μL overnight. MTT assays were performed after 24 hours, and changes were calculated as the percentage of mean absorbance (n=3) versus mean absorbance of drug-free control (n=3). Negative outliers indicated in red ovals. FIG. 11A depicts the results of an NSUN1-targeting drug library, 74 drugs, comparing growth/inhibition in H-82 (Y axis) and SC (X axis) cell lines. FIG. 11B depicts the results of an NSUN2-targeting drug library, 102 drugs, comparing growth/inhibition in H-82 (Y axis) and SC (X axis) cell lines. FIG. 11C depicts the results of an NSUN1-targeting drug library, 74 drugs, comparing growth/inhibition in K562 (Y axis) and SC (X axis) cell lines. FIG. 11D is a schematic representation showing categorization of the results from screens performed as described in FIG. 11, and validation experiments as described in FIG. 12.
as §2
as §3, with “In some aspects, screening is conducted using drug-sensitive cell lines. In some aspects, screening is conducted in leukemia cell lines. In some aspects, screening is conducted in other cancer cell lines besides leukemia (e.g., lung cancer cell lines). In some aspects, NSUN1/2-ACS inhibitors identified are verified in additional cell lines and/or animal models (see e.g., Tables 4-6).” left out

[3] = system: SC cells; assay: MTT growth inhibition in venetoclax-resistant monocytic leukemia cell line SC; type: cell-based, human; details: for Effective cell lines: SC: venetoclax-resistant human monocytic leukemia, wrapped cell
Text: as §1, §4, §2
The inventors then designed a protocol for functional screening of NSUN1/2-targeting supercomputing/AI-derived compound libraries as schematically presented in FIGS. 5A-5G. Briefly, the library compounds were obtained from various chemical companies/vendors and dissolved in DMSO, and then applied to 96-well plates that contained leukemia and/or other cancer cells that were resistant to venetoclax. […]

[4] = system: H82 cells; assay: MTT growth inhibition in venetoclax-resistant lung cancer cell line H82; type: cell-based, human; details: H82, venetoclax-resistant human lung cancer, wrapped cell
Text: as §1, §4
FIGS. 12A-12J display bar graphs displaying the results of validation experiments for small molecule inhibitors of NSUN1/2-ACS interactions as identified herein. Drug validation of select SC, H82, and/or K562 inhibiting compounds in mouse acute myeloid leukemia cell Line (C1498), SC cells, H82 cells, and/or K562 cells. NSUN1-17 and/or venetoclax acted as controls. Inhibition of cell vitality was identified as dose-dependent for certain small molecules, not merely cytotoxic. In brief, stock with concentration 0.4×10^6 test (e.g., SC, H82, K562, or C1498, as labelled) cells/mL, and 10 μM/μL drug was serially diluted into drug-free cell stock to reach concentrations of 1 μM/μL and […] and split into 100 μL volumes in a 96-well plate. MTT assays performed after 24 hour incubation. Percentages calculated as a difference in mean absorbance of each drug triplicate and mean absorbance in drug-free cell triplicate. […]

[5] = molecular target: T1, NSUN2-RNA polymerase II (RNAPII) interaction (Homo sapiens, UniProt Q08J23); assay: PL-RCA-FCM, NSUN2-RNAPII interaction; type: cell-based
T1 construct: RNAPII CTD2-S2P
Text: (§5) Black=negative control, blue=positive control, no drug=red.
(§6) The PL-RCA-CM/imaging technique utilized in the inventors previous work (Cheng, J. X. et al., Nature Communications 2018) was suitable to visualize and semi-quantify the NSUN1/2-mediated ACS in cells. However, the previous technique had the disadvantage of having a low sensitivity and low throughput. To overcome this bottleneck, as described herein, the inventors developed NSUN1/2-targeting fluorescence quenching and release (FQR) plate assay (FIG. 6A) and PL-RCA flow cytometry (PL-RCA-FCM) technology (FIG. 6B) for screening of NSUN1/2-targeting drug libraries and quantitatively measuring NSUN1/2-mediated ACS with and without drugs in a lineage-specific and high-throughput manner. The new PL-RCA-FCM detected very strong PL-RCA signals (>2 logs) of the NSUN2-mediated interactions with m5C, RNAPII CTD2-S2P and BRD4, particularly in the venetoclax-resistant leukemia cells (SC) (FIG. 6C), in comparison to the venetoclax-sensitive K1 cells (FIG. 6D).

[6] = molecular target: NSUN2-c-MYC interaction (Homo sapiens, UniProt Q08J23); assay: PL-RCA-FCM, NSUN2-c-MYC interaction; type: cell-based
Text: as §5, §6

[7] = molecular target: T2, NSUN1-eRNAPII interaction (Homo sapiens, UniProt P46087); assay: PL-RCA-FCM, NSUN1-eRNAPII interaction; type: cell-based
T2 construct: RNAPII
Text: (§7) FIGS. 5A-5G display a pipeline of computational design and functional screening of small-molecule compound libraries as well as exemplary characterization and validation of identified positive hit compounds and their targets. FIGS. 5A-5D display an exemplary experimental procedure, beginning with characterization of NSUN1 and/or NSUN2 putative binding modules for interaction with ACS components (FIGS. 5A-5B), a graphic displaying the design of a small molecule library and testing of the putative small molecule NSUN1/2-ACS inhibitors in cell lines (FIG. 5C), characterization of the NSUN1/2-ACS inhibitors interactions with the ACS machinery (FIG. 5D).
as §5
(§8) The PL-RCA-CM/imaging technique utilized in the inventors previous work (Cheng, J. X. et al., Nature Communications 2018) was suitable to visualize and semi-quantify the NSUN1/2-mediated ACS in cells. […] To overcome this bottleneck, as described herein, the inventors developed NSUN1/2-targeting fluorescence quenching and release (FQR) plate assay (FIG. 6A) and PL-RCA flow cytometry (PL-RCA-FCM) technology (FIG. 6B) for screening of NSUN1/2-targeting drug libraries and quantitatively measuring NSUN1/2-mediated ACS with and without drugs in a lineage-specific and high-throughput manner. […]

[8] = molecular target: NSUN2-mitochondrial translation initiation factor 3 (MTIF3) interaction (Homo sapiens, UniProt Q08J23); assay: PL-RCA-FCM, NSUN2-MTIF3 interaction; type: cell-based
Text: (§9) FIG. 23 provides PL-RCA-FCM results and an associated schematic showing that NSUN2-11 can disrupt the interactions between NSUN2 and mitochondrial RNA polymerase (POLRMT) as well as mitochondrial translation initiation factor 3 (MTIF3). RNA:m5C/NSUN1/2-mediated transcription and translation complexes (RNATTC) mediate multidrug resistance through regulating multi-bioprocesses and multi-organelles' functions in cancer cells.
as §6

[9] = molecular target: NSUN1-c-MYC interaction (Homo sapiens, UniProt P46087); assay: PL-RCA-FCM, NSUN1-c-MYC interaction; type: cell-based
Text: as §7, §5, §8

[10] = molecular target: NSUN2-mitochondrial RNA polymerase (POLRMT) interaction (Homo sapiens, UniProt Q08J23); assay: PL-RCA-FCM, NSUN2-POLRMT interaction; type: cell-based
Text: as §9, §6

Sequence of NSUN1-c-MYC interaction (P46087 whole entry): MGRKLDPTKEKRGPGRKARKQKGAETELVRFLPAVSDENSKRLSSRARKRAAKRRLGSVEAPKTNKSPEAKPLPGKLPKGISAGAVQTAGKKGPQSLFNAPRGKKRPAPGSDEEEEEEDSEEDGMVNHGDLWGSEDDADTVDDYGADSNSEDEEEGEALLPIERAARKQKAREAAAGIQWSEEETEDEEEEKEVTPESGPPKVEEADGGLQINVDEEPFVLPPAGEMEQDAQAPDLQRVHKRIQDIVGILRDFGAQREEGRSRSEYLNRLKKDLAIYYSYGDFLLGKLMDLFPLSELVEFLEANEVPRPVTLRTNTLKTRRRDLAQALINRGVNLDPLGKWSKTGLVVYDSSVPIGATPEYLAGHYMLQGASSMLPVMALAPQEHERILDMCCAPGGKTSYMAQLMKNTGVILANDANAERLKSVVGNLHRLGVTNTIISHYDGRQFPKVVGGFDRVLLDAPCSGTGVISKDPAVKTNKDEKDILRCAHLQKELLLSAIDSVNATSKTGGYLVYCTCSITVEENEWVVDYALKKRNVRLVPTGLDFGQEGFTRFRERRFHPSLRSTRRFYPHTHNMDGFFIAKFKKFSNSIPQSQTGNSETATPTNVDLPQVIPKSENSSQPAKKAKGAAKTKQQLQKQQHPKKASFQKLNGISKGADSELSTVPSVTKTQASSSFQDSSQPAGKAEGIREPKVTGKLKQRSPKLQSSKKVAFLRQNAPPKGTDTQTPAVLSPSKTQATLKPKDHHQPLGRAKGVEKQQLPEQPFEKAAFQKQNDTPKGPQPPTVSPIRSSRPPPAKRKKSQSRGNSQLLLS
T2 sequence (P46087 whole entry): as above
Sequence of NSUN2-mitochondrial RNA polymerase (POLRMT) interaction (Q08J23 whole entry): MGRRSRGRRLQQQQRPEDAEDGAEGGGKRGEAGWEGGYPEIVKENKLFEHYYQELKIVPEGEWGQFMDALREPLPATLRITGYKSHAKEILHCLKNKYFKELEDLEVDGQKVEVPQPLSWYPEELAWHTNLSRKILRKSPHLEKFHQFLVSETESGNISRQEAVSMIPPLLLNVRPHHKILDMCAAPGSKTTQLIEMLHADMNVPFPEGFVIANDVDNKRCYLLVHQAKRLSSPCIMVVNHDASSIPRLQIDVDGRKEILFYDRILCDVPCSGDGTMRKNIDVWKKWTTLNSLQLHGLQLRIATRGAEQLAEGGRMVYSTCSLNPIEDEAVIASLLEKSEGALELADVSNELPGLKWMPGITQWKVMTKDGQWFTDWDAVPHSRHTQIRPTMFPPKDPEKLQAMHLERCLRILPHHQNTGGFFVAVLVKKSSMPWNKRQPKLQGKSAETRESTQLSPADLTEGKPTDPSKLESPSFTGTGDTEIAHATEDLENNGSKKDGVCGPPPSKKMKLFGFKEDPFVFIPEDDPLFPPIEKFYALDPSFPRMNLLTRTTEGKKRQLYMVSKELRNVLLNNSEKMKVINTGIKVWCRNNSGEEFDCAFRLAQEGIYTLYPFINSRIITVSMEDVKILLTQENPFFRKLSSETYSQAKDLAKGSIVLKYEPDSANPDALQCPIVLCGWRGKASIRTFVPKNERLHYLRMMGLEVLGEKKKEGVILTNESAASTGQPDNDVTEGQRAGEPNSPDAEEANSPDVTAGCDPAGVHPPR
Sequence of NSUN2-mitochondrial translation initiation factor 3 (MTIF3) interaction (Q08J23 whole entry): as above
Sequence of NSUN2-c-MYC interaction (Q08J23 whole entry): as above
T1 sequence (Q08J23 whole entry): as above

SMILES: O=C(Nc1cccc(-c2nnc3n2CCCC3)c1)c1cc(-c2ccccc2)n[nH]1 [NSUN1-74]
Effective cell lines: C1498 [1]: C1498 (weakly)
Bioactive positive hit, tumor cell growth inhibition and lineage preference [2]: inhibits tumor cell growth in a non-lineage specific manner

SMILES: Nc1ncccc1-c1cc(Cc2ccc(COc3ccccn3)cc2)no1 [NSUN1-11]
Inhibition of growth of venetoclax-resistant leukemia (SC) cells [3]: inhibition of the growth of venetoclax-resistant SC cells; also recorded: inhibit drug (venetoclax)-resistant leukemia cells
Bioactive positive hit, tumor cell growth inhibition and lineage preference [2]: inhibits tumor cell growth in a non-lineage specific manner

SMILES: CC(C)Cc1nc(NC(=O)c2cc(-c3ccc4c(c3)CCO4)n[nH]2)n[nH]1 [NSUN1-17.16]
Bioactive positive hit, tumor cell growth inhibition and lineage preference [2]: inhibits tumor cell growth in a non-lineage specific manner

SMILES: NC1(C(=O)NC(CCO)c2ccc(Cl)cc2)CCN(c2ncnc3[nH]ccc23)CC1 (stereo not shown) [NSUN1-9]
Effective cell lines: C1498 [1]: SC & C1498 >
Effective cell lines: H82 [4]: SC & C1498 >
Effective cell lines: SC [3]: SC & C1498 >
Bioactive positive hit, tumor cell growth inhibition and lineage preference [2]: inhibits tumor cell growth in a leukemia preferential manner

SMILES: CC(C)C[C@H](NC(=O)[C@@H](O)[C@H](N)Cc1ccccc1)C(=O)O [NSUN1-10, Bestatin or Ubenimex, reference compound]
Bioactive positive hit, tumor cell growth inhibition and lineage preference [2]: inhibits tumor cell growth in a leukemia preferential manner

SMILES: Oc1nc(Nc2ccc(Cl)cc2)nc2nccc(-c3ccncc3)c12 [NSUN1-67]
Bioactive positive hit, tumor cell growth inhibition and lineage preference [2]: inhibits tumor cell growth in a non-lineage specific manner

SMILES: NC1(Cc2ccc(Cl)cc2)CCN(c2ncnc3[nH]ccc23)CC1 [NSUN1-19]
Effective cell lines: C1498 [1]: H82 > SC &
Effective cell lines: H82 [4]: H82 > SC &
Effective cell lines: SC [3]: H82 > SC &
Bioactive positive hit, tumor cell growth inhibition and lineage preference [2]: inhibits tumor cell growth in a lung cancer preferential manner

SMILES: O=c1ccc2ccc(OCN3CCN(c4cccc5sccc45)CC3)cc2[nH]1 [NSUN2-35, reference compound]
Bioactive positive hit, tumor cell growth inhibition and lineage preference [2]: inhibits tumor cell growth in a lung cancer preferential manner

SMILES: Cc1[nH]nc2ccc(-c3cncc(OCC(N)Cc4ccccc4)c3)cc12 (stereo not shown) [NSUN1-73]
Efficacy of tumor cell growth inhibition [2]: high-efficacy of tumor cell growth inhibition

SMILES: Nc1nc(Cn2c(=O)oc3ccccc32)nc(Nc2ccccc2)n1 [NSUN1-22]
Effective cell lines: C1498 [1]: C1498 (weakly)
Bioactive positive hit, tumor cell growth inhibition and lineage preference [2]: inhibits tumor cell growth in a lung cancer preferential manner

SMILES: C=CC(=O)Nc1cccc(-c2cccc3cnc(Nc4ccc(N5CCN(CCO)CC5)c(F)c4F)nc23)c1 [NSUN1-14]
Efficacy of tumor cell growth inhibition [2]: high-efficacy of tumor cell growth inhibition

Effect on NSUN2-mediated interaction with RNA polymerase II [5]: can disrupt
Effect on NSUN2-mediated interaction with c-MYC [6]: can disrupt
Effect on NSUN1 interaction with eRNAPII/RNAPII [7]: can disrupt
Effect on NSUN2-MTIF3 interaction [8]: can disrupt
Effect on NSUN1 interaction with c-MYC [9]: can disrupt
Effect on NSUN2-POLRMT interaction [10]: can disrupt
SMILES: COc1ccc2c(c1)CCc1c(C(=O)NCCc3nc4cc(C)ccc4[nH]3)n[nH]c1-2 [NSUN2-11]
Bioactive positive hit, tumor cell growth inhibition and lineage preference [2]: inhibits tumor cell growth in a non-lineage specific manner

SMILES: O=C(Nc1ccc(CN2CCCCC2)cc1)c1cccc(COc2ccc(Br)cc2)c1 [NSUN2-37]
Effective cell lines: C1498 [1]: H82 & SC >
Effective cell lines: H82 [4]: H82 & SC >
Effective cell lines: SC [3]: H82 & SC >
Bioactive positive hit, tumor cell growth inhibition and lineage preference [2]: inhibits tumor cell growth in a non-lineage specific manner
